In US6368788B1 (priority 1987, dated 2002):

How the values were obtained:
Dengue virus = experiment: Dengue Protocol B; design: species or system human; conditions: in vivo
Experimental: Sixty Dengue virus infected patients (60) were entered into the trial; 36 were treated with L-Glu-L-Trp and 24 were treated using conventional therapy (i.e., controls).

[1] = test system: E-receptors on aged thymocytes; experiment: Expression of E-receptors on aged thymocytes; format: cell-based, guinea pigs; conditions: for E-RFC (%): aged thymocytes
Excerpt: Effects of L-Glu-L-Trp on expression of E-receptors on “aged” thymocytes was investigated in a manner similar to that in EXAMPLE 26, above, but using thymocytes obtained from old male guinea pigs (700-800 g). In aged animals it is recognized that the percentage of thymocytes forming rosettes with rabbit erythrocytes is reduced, and cell surface E-receptors are likewise reduced. For these studies aged thymocytes were isolated in Medium 199 from 42 guinea pigs, and E-RFC determined as described by Stadecker, M. J., et al., J. Immunol. 111(8):4061-4065 (1973), incorporated herein by reference. L-Glu-L-Trp was dissolved in 0.9% (w/v) NaCl and added to cultures of thymocytes at concentrations of 1, 0.01, and 0.0001 mg/ml.

influenza = experiment: Influenza treatments (Protocol E); design: species or system human; conditions: in vivo
Experimental: One hundred fifty-six patients (156) with influenza were treated with 100 μg L-Glu-L-Trp im or 1 μg/kg intranasally on each of 5-10 consecutive days. A control group constituted with entry of 82 influenza patients who remained untreated.

[2] = test system: peripheral blood lymphocytes; experiment: Protocol A3 Group 2: pyoderma in patients with SLE; format: in vivo, human
Excerpt: Group 2 constituted 22 patients with diagnosed forms of systemic lupus erythematosus (SLE): ie., 14 males and 8 females ranging in age from 21 to 62 years of age. The time since presentation with a diagnosis of SLE in this patient population ranged from several months to 18 years. All SLE patients in this trial had dermal manifestations of lupus erythematosus that included discoid disseminated forms of the disease. All patients had experienced chronic and recurrent episodes of pyoderma, and all had previously received conventional therapy, including use of antibiotics, delagil, and external corticosteroid ointments without effect. Patients in Group 2 were randomly divided into two treatment groups, the first consisting of 13 patients (9 men and 4 women) treated with L-Glu-L-Trp according to Therapy A, below, and the second consisting of 9 patients (5 men and 4 women) treated (as a control) according to Therapy B, ie., conventional therapeutic methods using anti-malarial preparations and vasoactive agents according to standard dosages and schedules.
In treatment Protocol A, all patients received L-Glu-L-Trp in combination with antibiotics. […]
Local antibiotics were administered as follows: Ampicillin (4), oxacillin (4), Levomycetin (1), tetracycline (9), Rondomycin (2), deoxycycline (8), cephalexin (2), and Rifampicin (1).

[3] = test system: upper respiratory infections; experiment: Prophylaxis of respiratory infections in polar explorers; format: in vivo, human; conditions: intranasal 1 μg/kg, 3 days
hepatitis B = experiment: Children with chronic persistent hepatitis B; format: in vivo, human; design: T-Lymphocytes (E-RFC): unit not given here
Experimental: In accord with a USSR Ministry of Health decision 125 children suffering with chronic persistent hepatitis B were entered into this trial over a two month period. Group 1 consisted of 35 children who received decaris immunomodulatory therapy; Group 2, 38 children who received thymalin treatments; Group 3, […] who received L-Glu-L-Trp; and, Group 4, 32 children who received only conventional symptom specific therapy.
L-Glu-L-Trp was administered at a dose of 2 μg/kg of body mass, im, daily for […], and a repeat (identical) course of treatment was administered 10 days after termination of the first course.

[4] = Group 2 pyoderma in SLE, after L-Glu-L-Trp Therapy (n = 13)
[5] = Non-Responders, After L-Glu-L-Trp (n = 7)
[6] = Responders, L-Glu-L-Trp Therapy (n = 12)

**Q.** L-Glu-L-Trp was tested. Which Clinical outcome (Dengue virus) did it give?
**A.** Its Clinical outcome is “reduction of fever, more rapid reduction of toxic symptoms”.

**Q.** What about the “Percentage of E-RFC” value ([1]; 1 mg/mL) of the same substance?
**A.** The value was “statistically significant increase in the percentage of E-RFC”.

**Q.** And the “E-RFC (%)” value ([1]; Conc. 0.0001 mg/ml)?
**A.** The value was 50.3 ± 4.2%.

**Q.** What about the “E-RFC (%)” value ([1]; Conc. 0.01 mg/ml) of the same substance?
**A.** Its value is 47.8 ± 3.9%.

**Q.** What about the “E-RFC (%)” value ([1]; Conc. 1 mg/ml) of the same substance?
**A.** Its value is 54.6 ± 4.2 %.

**Q.** And the Clinical outcome (influenza)?
**A.** Its Clinical outcome is “accelerated alleviation of symptoms associated with influenza infection”.

**Q.** What about the B-Lymphocytes [2, 4] of the same substance?
**A.** Its B-Lymphocytes is 0.16 ± 0.01 ×10^9/L.

**Q.** What about the “B-Lymphocytes % Normal Value” [2, 4] of the same substance?
**A.** Its value is “(52%)”.

**Q.** And the “B-Lymphocytes (%)” value [2, 4]?
**A.** Its value is 6.8 ± 0.9%.

**Q.** What about the “Basophils (%)” value [2, 4] of the same substance?
**A.** Its value is 0.1 ± 0.1%.

**Q.** And the “Blast Transformation, Con-A” value [2, 4]?
**A.** The value was 64.1 ± 6.5 % of PBL.

**Q.** And the “Blast Transformation, PHA” value [2, 4]?
**A.** The value was 47.4 ± 3.5 % of PBL.

**Q.** What about the “Eosinophils (%)” value [2, 4] of the same substance?
**A.** The value was 2.2 ± 0.1%.

**Q.** What about the Erythrocytes [2, 4] of the same substance?
**A.** The Erythrocytes was 4.7 ± 0.1 10^12/L.

**Q.** What about the IgA [2, 4] of the same substance?
**A.** Its IgA is 2.85 ± 0.32 g/L.

**Q.** And the “IgA % Normal Value” [2, 4]?
**A.** The value was “(150%)”.

**Q.** What about the IgG [2, 4] of the same substance?
**A.** Its IgG is 14.8 ± 1.27 g/L.

**Q.** What about the “IgG % Normal Value” [2, 4] of the same substance?
**A.** Its value is “(137%)”.

**Q.** What about the IgM [2, 4] of the same substance?
**A.** The IgM was 0.92 ± 0.12 g/L.

**Q.** And the “IgM % Normal Value” [2, 4]?
**A.** Its value is “(58%)”.

**Q.** And the Leukocytes [2, 4]?
**A.** The Leukocytes was 5.74 ± 0.12 ×10^9/L.

**Q.** What about the “Leukocytes % Normal Value” [2, 4] of the same substance?
**A.** Its value is “(86%)”.

**Q.** What about the Lymphocytes [2, 4] of the same substance?
**A.** The Lymphocytes was 2.17 ± 0.21 ×10^9/L.

**Q.** What about the “Lymphocytes % Normal Value” [2, 4] of the same substance?
**A.** The value was “(78%)”.

**Q.** What about the Lymphocytes, % [2, 4] of the same substance?
**A.** The Lymphocytes, % was 36.4 ± 2.3%.

**Q.** What about the “Monocytes, %” value [2, 4] of the same substance?
**A.** The value was 8.0 ± 0.7%.

**Q.** What about the Neutrophils [2, 4] of the same substance?
**A.** Its Neutrophils is 3.5 ± 0.7 ×10^9/L.

**Q.** And the “Neutrophils, %” value [2, 4]?
**A.** The value was 55.3 ± 4.2%.

**Q.** And the “Neutrophils, % Normal Value” [2, 4]?
**A.** Its value is “(106%)”.

**Q.** What about the T-Lymphocytes [2, 4] of the same substance?
**A.** The T-Lymphocytes was 1.13 ± 0.07 ×10^9/L.

**Q.** And the “T-Lymphocytes % Normal Value” [2, 4]?
**A.** The value was “(66%)”.

**Q.** And the “T-Lymphocytes (%)” value [2, 4]?
**A.** The value was 44.3 ± 2.7%.

**Q.** And the T-helper [2, 4]?
**A.** Its T-helper is 0.87 ± 0.12 ×10^9/L.

**Q.** And the “T-helper % Normal Value” [2, 4]?
**A.** Its value is “(66%)”.

**Q.** What about the “T-helper (%)” value [2, 4] of the same substance?
**A.** The value was 26.5 ± 2.7%.

**Q.** What about the T-suppressor [2, 4] of the same substance?
**A.** Its T-suppressor is 0.53 ± 0.03 ×10^9/L.

**Q.** What about the “T-suppressor % Normal Value” [2, 4] of the same substance?
**A.** The value was “(136%)”.

**Q.** What about the “T-suppressor (%)” value [2, 4] of the same substance?
**A.** The value was 21.2 ± 3.7%.

**Q.** And the Clinical outcome ([2]; human, in vivo)?
**A.** Its Clinical outcome is “leads to a positive clinical effect and resolution of dermal rashes”.

**Q.** And the Clinical outcome [3]?
**A.** The Clinical outcome was “prevented the occurrence of upper respiratory infections”.

**Q.** What about the “Percent of Subjects Disease Free at 6 Months After Treatment” value (“Percent of Subjects Disease Free” for short) (hepatitis B; Group 1, Pre-Treatment ALCT Activity None) of the same substance?
**A.** Its value is 100%.

**Q.** And the “Percent of Subjects Disease Free” value (hepatitis B; Group 2, Pre-Treatment ALCT Activity Moderate)?
**A.** Its value is 80%.

**Q.** And the “Percent of Subjects Disease Free” value (hepatitis B; Group 3, Pre-Treatment ALCT Activity High)?
**A.** Its value is 0%.

**Q.** What about the “ALCT Cytotoxic Index” value (hepatitis B; [5]) of the same substance?
**A.** Its value is 44.55 ± 6.8.

**Q.** And the “ALCT: % of subjects” value (hepatitis B; [5])?
**A.** The value was 57.14 ± 18.7%.

**Q.** What about the “Ratio OKT4^+/OKT8^+” value (hepatitis B; [5]) of the same substance?
**A.** The value was 0.82 ± 0.07.

**Q.** What about the “T-Lymphocytes (E-RFC)” value (hepatitis B; [5]) of the same substance?
**A.** Its value is 1382 ± 76 ×10^9.

**Q.** And the “T-Lymphocytes (E-RFC) % Normal Value” (hepatitis B; [5])?
**A.** The value was “(85%)”.

**Q.** And the “T-Lymphocytes (E-RFC) % of PBL” value (hepatitis B; [5])?
**A.** The value was 56.7 ± 3.24 % of PBL.

**Q.** And the “ALCT Cytotoxic Index” value (hepatitis B; [6])?
**A.** The value was 50.4 ± 5.5.

**Q.** And the “ALCT: % of subjects” value (hepatitis B; [6])?
**A.** Its value is 16.7 ± 13.2%.

**Q.** What about the “Ratio OKT4^+/OKT8^+” value (hepatitis B; [6]) of the same substance?
**A.** The value was 1.08 ± 0.07.

**Q.** And the “T-Lymphocytes (E-RFC)” value (hepatitis B; [6])?
**A.** Its value is 1227 ± 65 ×10^9.

**Q.** And the “T-Lymphocytes (E-RFC) % Normal Value” (hepatitis B; [6])?
**A.** The value was “(76%)”.

**Q.** What about the “T-Lymphocytes (E-RFC) % of PBL” value (hepatitis B; [6]) of the same substance?
**A.** The value was 47.33 ± 2.2 % of PBL.

**Q.** What about the “Stable remission over 6 months” value (hepatitis B; highest ALCT levels) of the same substance?
**A.** Its value is 0%.

**Q.** And the “Patients with increased E-RFC T-lymphocytes and ADCC decreased to normal (responders)” value (hepatitis B; in vivo)?
**A.** Its value is “about 63%”.

**Q.** And the “Stable remission over 6 months” value (hepatitis B; moderate ALCT activity)?
**A.** The value was 80%.

**Q.** And the “Stable remission over 6 months” value (hepatitis B; patients lacking demonstrable ALCT)?
**A.** The value was “One hundred percent”.
